This note sets out measurements from patent publication US12158399B2, “CaMKK2 inhibitor compositions and methods of using the same” (Duke University, priority 2016, dated 2024).

One assay has as its system E0771 tumors. Briefly: Flow cytometry of tumor-associated myeloid and lymphoid cells in E0771 tumors. The class given is in vivo, mouse. To be noted: STO-609 vs vehicle treated mice. As to the method: Tumors were removed from mice and minced with a surgical scalpel. Minced tissues were added to 5 ml HBSS containing Ca^2+ and Mg^2+ (ThermoFisher Scientific, MA, USA), and supplied with collagenase 2 mg/ml and DNase 0.1 mg/ml (Roche, Basel, Switzerland). Subsequently, they were transferred in gentleMACS C tubes, dissected with gentleMACS dissociator (Miltenyi, Bergisch Gladbach, Germany) and incubated for […] at 37° C. At the end of this incubation, tumors were dissected again with gentleMACS dissociator, and cell suspension passed through 70 μm-cell strainers (Coring, NY, USA), washed twice in PBS w/2% FBS and used for FACS analysis.
Staining of tumor-infiltrating E0771 tumors: 5×10^6 cells suspension from dissected tumors were surface stained with APC Cy7-CD3, PE-CD8, PE Cy7-CD4, APC PD-1 (all from BioLegend, CA, USA). Cells were incubated for 15 min at 4° C., washed with PBS-2% FCS. PerCP/Cy5.5 PD-1 antibody (BioLegend, CA, USA) was used for intracellular staining on fixed and permeabilized cells, according with manufacture's protocol (BioLegend). For myeloid cells staining, cells were incubated with PE anti-mouse/human CD11b, PE-Cy7 anti-mouse Ly6G, APC anti-mouse F4/80 (all from BioLegend), PerCpCy5.5 anti-mouse Ly6C, APC Cy7-I-A and Fixable Viability Dye eFluor 450 (eBioscience, CA, USA) at 4° C. for 15 min in dark. Subsequently, cells were washed with PBS w/2% FBS and analyzed by FACS. Bone marrow-derived macrophages (1×10^6) were stained with PE anti-mouse/human CD11b, APC anti-mouse F4/80 (BioLegend), APC Cy7-I-A and Fixable Viability Dye eFluor 450 (eBioscience). The stained cells were analyzed using a BD FACSCanto flow cytometer (BD, NJ, USA). Data is analyzed using FlowJo (TreeStar, OR, USA).
For orientation: Flow cytometry measures light scatter and fluorescence of single cells or particles in a stream.

A further assay relates to E.G7 cells. Kind of assay: E.G7 lymphoma flank tumor growth under STO-609 treatment. The class given is in vivo, mouse. The conditions noted are these: C57BL/6 mice, peritoneal injection every 2-3 days, vs DMSO; p<0.001. How it is done: Flank Tumor Model 1×10^5 E.G7 cells were suspended in 100 μl PBS and implanted subcutaneously to the right side flank of the mice. Tumors were monitored using bioluminescence imaging each week. Tumor sizes were measured with calibrator every 3-4 days and calculated as: Length×Width×Width/2. In some experiments 5×10^5 cells were used as indicated. Mice were sacrificed when tumor reached 2 cm^3. ELISpot Analysis
STO-609 was purchased from TORIS Bioscience (Bristol, UK). The C57BL/6 mice were purchased from the Jackson Laboratory (CA, USA). The mice were inoculated with 5×10^5 E.G7 cells to the right flank subcutaneously on day 0. On day 7, the tumor growth was measured using bioluminescent imaging. All the mice with visible tumor under luciferin detection were randomized into STO-609 treatment group or DMSO control group. […] The tumor size was monitored using a calibrator every 3-4 days. The experiment was terminated when the tumor reached 2 cm^3.

The next assay has as its system Met1 cells. Briefly: Orthotopic Met1 mammary tumor growth. To be noted: syngeneic wildtype mice; IP 100 moles/Kg body weight 3-times/week. The class given is in vivo, mouse. As to the method:
(§1) E0771, 4T1 and Met1 grafts: 200,000 of the indicated cells were grafted orthotopically into the mammary fat pad of mice. 4T1 and Met1 cells were grafted in 50% matrigel. Resulting tumors were assessed by direct caliper measurement. To get sizable tumors in Camkk2−/− mice for IHC and flow cytometry studies, a higher number of E0771 (4×10^5) where grafted. This information has been reported in the corresponding figures.
(§2) […] […] GSK treatment was initiated at post-day 2.

Assay [1] has as its system E0771 cells. Kind of assay: Orthotopic E0771 mammary tumor growth. The class given is in vivo, mouse. To be noted: orthotopic graft in syngeneic wildtype mice; STO-609 IP 3-times/week. How it is done: as §1
(§3) These drugs were administered intraperitoneally daily. […] GSK treatment was initiated at post-day 2.

Assay [2] has as its system E0771 cells. Briefly: E0771 tumor growth in CD8+ T-cell depleted Camkk2-/- mice. The class given is in vivo, mouse. To be noted: anti-CD8 treated Camkk2-/- mice, STO-609 vs vehicle. As to the method: as §1, §3
To deplete CD8+ cells, mice were injected intra-peritoneally with anti-mouse CD8 monoclonal antibody or its IgG control isotype (BioXCell, NH, USA) each at 200 μl at the concentration of 1 mg/ml 4 days and 1 day before tumor inoculation, and every 3 days after tumor cell injection. The effect of CD8 depletion was monitored by flow cytometry using 50 μl peripheral blood staining with APC anti-mouse CD8, APC-Cy7 anti-mouse CD45.2 (BioLegend) at the same time.

The next assay concerns 4T1 cells. Kind of assay: Orthotopic 4T1 mammary tumor growth. The class given is in vivo, mouse. To be noted: syngeneic wildtype mice; IP 3-times/week. How it is done: as §1, §2
For another assay, the system named is E.G7 tumor. Kind of assay: Flow cytometry of tumors and spleens of E.G7 tumor bearing mice. The class given is in vivo, mouse. To be noted: vs DMSO. How it is done:
The removed tumors were further minced with a surgical scalpel. The tissue were added to 5 ml HBSS w/Ca^2+ and Mg^2+ (ThermoFisher Scientific, MA, USA) supplied with collagenase 2 mg/ml and DNase 0.1 mg/ml (Roche, Basel, Switzerland) in gentleMACS C tubes and dissecting with gentleMACS dissociator (Miltenyi, Bergisch Gladbach, Germany). The samples were incubated in 37° C. for 15 min and passed through the 70 μm cell strainers (Coring, NY, USA). Cells were washed twice in PBS w/2% FBS before staining.
For myeloid cells staining, 5×10^6 cells were incubated with FITC anti-mouse CD11c, PE anti-mouse/human CD11b, PE-Cy7 anti-mouse Ly6G, APC anti-mouse F4/80 (all from BioLegend, CA, USA), PerCpCy5.5 anti-mouse Ly6C, Fixable Viability Dye eFluor® 450 (eBioscience, CA, USA) at 4° C. for 15 min in dark and washed with PBS w/2% FBS. The stained cells were analyzed using a BD FACSCanto flow cytometer (BD, NJ, USA). Data is analyzed using FlowJo (TreeStar, OR, USA).

Another assay relates to bone marrow derived MDSC. Kind of assay: In vitro MDSC generation from bone marrow with H2O2 or antioxidants. The class given is cell-based, mouse. The conditions noted are these: added Day 0 and Day 3; 0.001 mM H2O2, 20 μM MitoTEMPO, 20 μM BHA. An excerpt: To further study how ROS regulates MDSC differentiation, low dose of H2O2 and two commonly used antioxidants, MitoTEMPO and Butylated hydroxyanisole (BHA), were separately added to the culture media during MDSC in vitro generation. At basal condition, KO marrow generated less M-MDSC cells while differentiated more into Ly6C−CD11c+I-A+ mature dendritic cells compared to WT ones. […] The higher level of ROS in CaMKK2 KO MDSCs limited M-MDSC accumulation by facilitating the myeloid cell differentiation.
Bone marrow cells were prepared as described before. Cells after RBC lysis were seeded to 6-well plates (Coring, NY, USA) at 1×10^6 per well in 5 ml DMEM (Gibco, MA, USA) supplied with 10% FBS, 2 mM L-glutamine, 1.5 g/L sodium bicarbonate, 10 mM HEPES, 1.0 mM sodium pyruvate (all from Gibco, MA, USA), 10% fetal bovine serum (Hyclone, MA, USA), 40 nM recombinant mouse GM-CSF and 40 nM recombinant mouse IL-6 (Biolegend, CA, USA), and with or without 50% E.G7 supernatant. The supernatant was half-changed on Day 3. The floating cells were collected on Day 5 and enriched by anti-mouse Gr-1 Microbeads (Miltenyi, Bergisch Gladbach, Germany). The cells with the purity >90% were used. In some experiments as indicated, the cells were stained with APC anti-mouse Gr-1, PE anti-mouse/human CD11b (Biolegend, CA, USA). Double positive cells were sorted with BD FACS Aria II cell sorter (BD, NJ, USA).
For MDSC and BMDC, only floating cells were collected. 1×10^6 cells were spun down in BD Falcon round-bottom polystyrene tubes (BD, NY, USA). The cell pellet was incubated with 50 μl PBS with 2% FBS with FITC anti-mouse CD11c, PE anti-mouse/human CD11b, PE-Cy7 anti-mouse Ly6G, APC anti-mouse F4/80, APC-Cy7 anti-mouse I-A (all from BioLegend, CA, USA), PerCP Cy5.5 anti-mouse Ly6C, and Fixable Viability Dye eFluor® 450 (eBioscience, CA, USA) at 4° C. for 15 min. Cells were washed once with 2 ml PBS with 2% FBS and fixed with 200 μl 1.5% PFA in 4° C. till analysis.

For the compound `O=C(O)c1ccc2c3c1cccc3c(=O)n1c3ccccc3nc21` [STO-609], in the assay with E0771 tumors, the “CD4+ T cells in E0771 tumors” value is on record as “promoting accumulation”, the “CD8+ T cells in E0771 tumors” value was “promoting accumulation”, the “MHCII I-A high macrophages in E0771 tumors” value is “promoting accumulation” and the “NK-T cells in E0771 tumors” value was “promoting accumulation”. Also, the “lymphoma growth (E.G7 tumor size)” value in the assay on E.G7 cells is “significantly suppressed”. Also, in the assay on Met1 cells, the “Met1 mammary tumor growth (tumor volume)” value is on record as “inhibited”. For the same compound, the “E0771 mammary tumor growth (tumor volume)” value with E0771 cells [1] was “antitumor activity”. Moreover, in the assay on E0771 cells [2], the “E0771 tumor growth in CD8+ T-cell depleted CamKK2-/- mice” value is reported as “without effect”. Further, in the assay with 4T1 cells, the “4T1 mammary tumor growth (tumor volume)” value was “inhibited”. In the assay with E.G7 tumor (E.G7 tumors, p<0.05), the “percentage of CD3 in the tumors” value is given as “significantly higher”. Also, the “percentage of M-MDSC in the spleens” value in the assay with E.G7 tumor (Ly6C+ in CD11b+ population, p<0.001) is “much lower”.
Turning to `CCCc1ccnc2[nH]cc(-c3ccc(C(=O)N[C@@H](CO)c4ccccc4)cc3)c12` [GSKi], the “E0771 mammary tumor growth (tumor volume)” value in the assay with E0771 cells [1] is reported as “inhibited”.
As for `COc1ccc(O)c(C(C)(C)C)c1` [BHA, Butylated hydroxyanisole], in the assay on bone marrow derived MDSC, the “M-MDSC number / accumulation” value was “same phenomenon was also observed” and the “differentiation towards Ly6C-IA+CD11c+ dendritic cells” value is given as “same phenomenon was also observed”.
With `CC1(C)CC(NC(=O)C[P+](c2ccccc2)(c2ccccc2)c2ccccc2)CC(C)(C)N1[O]` [MitoTEMPO], in the assay with bone marrow derived MDSC, the “M-MDSC number / accumulation” value is given as “significantly induced M-MDSC accumulation” and the “differentiation towards Ly6C-IA+CD11c+ dendritic cells” value is “decreased the differentiation”.
For `OO` [H2O2], in the assay with bone marrow derived MDSC, the “M-MDSC number / accumulation” value is “significantly decreased”; the “differentiation towards Ly6C-IA+CD11c+ dendritic cells” value is “increased both the count and percentage”.
